The text below walks through data of US20050239733A1, “Sequence requirements for inhibitory oligonucleotides” (Coley Pharmaceutical GmbH, priority 2003, published 2005).

In one data set the target is T1, human TLR8 (Homo sapiens, UniProt Q9NR97).
T1 construct: expressed in transfected cells
T1 sequence (Q9NR97 27-1041): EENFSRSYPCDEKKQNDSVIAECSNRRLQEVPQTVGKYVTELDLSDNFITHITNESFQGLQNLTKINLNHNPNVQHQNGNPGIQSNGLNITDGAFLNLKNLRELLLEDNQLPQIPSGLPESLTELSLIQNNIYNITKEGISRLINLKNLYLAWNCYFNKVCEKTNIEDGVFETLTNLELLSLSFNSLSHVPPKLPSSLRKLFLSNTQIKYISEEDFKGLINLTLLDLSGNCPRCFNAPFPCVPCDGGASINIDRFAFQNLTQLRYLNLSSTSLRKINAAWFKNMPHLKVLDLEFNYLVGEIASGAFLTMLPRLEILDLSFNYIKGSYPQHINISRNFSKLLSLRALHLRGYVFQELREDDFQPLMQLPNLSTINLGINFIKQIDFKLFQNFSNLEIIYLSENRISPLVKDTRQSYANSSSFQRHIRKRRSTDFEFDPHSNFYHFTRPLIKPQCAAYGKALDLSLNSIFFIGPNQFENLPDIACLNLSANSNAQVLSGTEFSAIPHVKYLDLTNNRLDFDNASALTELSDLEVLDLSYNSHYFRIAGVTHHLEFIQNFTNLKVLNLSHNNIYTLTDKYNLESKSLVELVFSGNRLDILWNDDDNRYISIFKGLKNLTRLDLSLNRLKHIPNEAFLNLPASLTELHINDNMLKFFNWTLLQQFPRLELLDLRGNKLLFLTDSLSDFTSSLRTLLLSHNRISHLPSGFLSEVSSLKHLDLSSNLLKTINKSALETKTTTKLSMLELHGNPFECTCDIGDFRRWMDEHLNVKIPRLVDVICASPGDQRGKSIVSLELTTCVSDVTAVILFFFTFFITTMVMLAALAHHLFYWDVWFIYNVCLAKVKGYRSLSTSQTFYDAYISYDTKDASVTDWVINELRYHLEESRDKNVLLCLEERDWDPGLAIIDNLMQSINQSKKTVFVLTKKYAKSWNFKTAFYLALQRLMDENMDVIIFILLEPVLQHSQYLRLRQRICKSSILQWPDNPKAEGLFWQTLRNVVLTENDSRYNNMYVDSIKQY
The data set can be described thus: Inhibition of R-848-mediated NF-κB-luciferase activation in hTLR8-LUC-293 cells. Conditions: for inhibitory for TLR8: general statement 'found according to the present invention', conditions not given. It counts as cell-based. As for the experimental part: The previous examples describe the ability of certain inhibitory ODN to inhibit activation of signal transduction mediated by human Toll-like receptor 9 (hTLR9). […] The assay system involved stimulating hTLR8-LUC-293 cells with the TLR8 ligand, R-848 (Resiquimod; Jurk M et al. (2002) Nat Immunol 3:499) in the presence and absence of ODN and comparing the induction of luciferase activity in the absence of ODN to luciferase activity in the presence of ODN.
Cells were assayed for luciferase activity 16 h later. Results were calculated as fold induction above medium background.
Luciferase activity was assayed after 16 h.
hTLR8-LUC-293 cells were incubated with 50 μM R-848 in the presence of increasing concentrations of the following ODN: ODN 2088, D13GT (whererin D is dSpacer), GTN13, N6GTN7, random 15-mer N15, N13GT, and the dinucleotide GT. Luciferase activity was assayed after 16 h. Luciferase activity of R-848 without any ODN was set to 100% (without correction for medium background, i.e. background activity of medium remained at approx. 17%).
Luciferase activity was assayed after 16 h. Luciferase activity of R-848 without any ODN was set to 100% (without correction for medium background, i.e., background activity of medium remained at approx. 17%).
In yet a further set of experiments hTLR8-LUC-293 cells were incubated with 50 μM R-848 in the presence of increasing amounts of different dinucleotides (GT, ODN 603; TG, ODN 688; GG, ODN 689; GU, ODN 690; UG, ODN 691; AT, ODN 692; and TT, ODN 693). Luciferase was assayed after 16 h. Luciferase activity of R-848 without any ODN was set to 100% and remaining R-848-mediated NF-κB activation in the presence of dinucleotides or ODN 2088 was calculated. Medium background was 17% in this set of experiments.
hTLR-LUC-293 cells (expressing the respective humanTLR7, TLR8, or TLR9) were incubated with constant amounts of TLR-agonist (for hTLR7: 2 μM R-848, for hTLR8: 50 μM R-848, and for hTLR9: 0.156 μM CpG ODN 2006) and increasing amounts of TLR-antagonist. […] To compare data for different TLRs, percent remaining activity of agonist was plotted against the log of molar ratio of antagonist to agonist (e.g., for hTLR8: 50 μM R-848 and 5 μM ODN, the plotted ratio is 10^−1). Used ODN concentrations were: for hTLR7 and hTLR8, 5 μM, 0.5 μM, 0.05 μM, and 0.005 μM, and for hTLR9, 2.5 μM, 0.156 μM, 0.0098 μM and 0.00061 μM.

Another data set addresses T2, human TLR9 (Homo sapiens, UniProt Q9NR96).
T2 sequence (Q9NR96 26-1032): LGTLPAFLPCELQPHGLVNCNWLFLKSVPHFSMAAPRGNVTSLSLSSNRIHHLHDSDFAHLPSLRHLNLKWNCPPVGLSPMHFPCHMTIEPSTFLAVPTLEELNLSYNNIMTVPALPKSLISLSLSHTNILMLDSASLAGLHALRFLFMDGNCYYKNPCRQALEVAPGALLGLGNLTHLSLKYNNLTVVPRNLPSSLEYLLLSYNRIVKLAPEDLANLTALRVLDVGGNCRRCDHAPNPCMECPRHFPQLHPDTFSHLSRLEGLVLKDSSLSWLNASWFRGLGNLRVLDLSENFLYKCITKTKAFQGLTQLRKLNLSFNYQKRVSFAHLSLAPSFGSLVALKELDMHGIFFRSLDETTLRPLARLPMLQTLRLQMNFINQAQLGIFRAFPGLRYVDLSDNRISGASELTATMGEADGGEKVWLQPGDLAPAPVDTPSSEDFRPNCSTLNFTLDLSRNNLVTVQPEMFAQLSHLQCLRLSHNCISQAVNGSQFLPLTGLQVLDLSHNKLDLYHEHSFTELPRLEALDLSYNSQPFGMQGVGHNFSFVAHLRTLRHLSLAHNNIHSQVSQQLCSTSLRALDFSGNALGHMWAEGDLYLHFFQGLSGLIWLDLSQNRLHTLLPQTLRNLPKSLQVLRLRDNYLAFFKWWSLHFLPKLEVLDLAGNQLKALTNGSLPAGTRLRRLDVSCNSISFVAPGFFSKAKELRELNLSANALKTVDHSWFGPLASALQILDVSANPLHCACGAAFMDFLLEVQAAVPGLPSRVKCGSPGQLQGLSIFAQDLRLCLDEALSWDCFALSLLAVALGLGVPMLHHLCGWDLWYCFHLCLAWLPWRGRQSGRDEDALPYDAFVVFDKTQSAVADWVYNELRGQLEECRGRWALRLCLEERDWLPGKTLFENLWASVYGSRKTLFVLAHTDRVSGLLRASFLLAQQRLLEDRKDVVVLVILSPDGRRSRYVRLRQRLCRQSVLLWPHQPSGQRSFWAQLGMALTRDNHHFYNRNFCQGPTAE
The data set can be described thus: Inhibition of CpG ODN 2006-mediated NF-κB-luciferase activation in hTLR9-LUC-293 cells. The following applies: for Percent 2006 Activity: equimolar 0.156 μM CpG ODN 2006 and inhibitory ODN; for inhibitory for TLR9: general statement 'found according to the present invention', conditions not given; for inhibition of hTLR9 (CpG ODN 2006-mediated luciferase activity), in words: 0.156 μM CpG ODN 2006, increasing ODN, 16 h.

Setting [1] is: Table 3 (nucleotides flanking 5′ CC, truncations).
Where [2] appears, read: Table 2 (5′ CC replaced by other dinucleotides).
Setting [3] is: Table 1 (length b / Spacer 18 variants).

In the case of “ACCTGGCGGGGAAGT (DNA, backbone and methylation of C not given here) [ODN 941]”, in the data set with human TLR8, the “inhibitory for TLR8” value is “inhibitory”. In addition, the “Percent 2006 Activity” value in the data set with human TLR9 (setting [1]) is on record as 11%. For the same sequence, in the data set with human TLR9, the “inhibitory for TLR9” value is “inhibitory”.

Regarding “CCCTGGCGGGGAAGT (DNA, backbone and methylation of C not given here) [ODN 942]”, the “inhibitory for TLR8” value with human TLR8 was “inhibitory”. Further, the “Percent 2006 Activity” value with human TLR9 (setting [1]) is reported as 8%. Also, the “inhibitory for TLR9” value with human TLR9 is “inhibitory”.

Turning to CCTCAAGCTTGAGGGG [SEQ ID NO:13], at human TLR8, the “inhibitory for TLR8” value is listed as “not for TLR8”. For the same sequence, at human TLR9, the “inhibitory for TLR9” value is listed as “inhibitory”.

On to “CTGGCGGGGAAGT (DNA, backbone and methylation of C not given here) [ODN 962]”, for which, in the data set with human TLR8 (50 μM R-848, increasing ODN (up to 5 μM), 16 h), the “inhibition of hTLR8 (R-848 activity), in words” value is “specific inhibition”. For the same sequence, the “Percent 2006 Activity” value with human TLR9 (setting [1]) was determined as 122%.

“GCCTGGCGGGGAAGT (DNA, backbone and methylation of C not given here) [ODN 940]”: the “inhibitory for TLR8” value with human TLR8 is listed as “inhibitory”. The “Percent 2006 Activity” value in the data set with human TLR9 (setting [1]) came out at 13%. The “inhibitory for TLR9” value with human TLR9 is “inhibitory”.

Consider “NNNNNNNNNNNNNN [ODN 605, reference compound]”, for which the “inhibition of hTLR9 (CpG ODN 2006-mediated luciferase activity), in words” value against human TLR9 is “not”.

Consider “TAATGGCGGGGAAGT (DNA, backbone and methylation of C not given here) [ODN 959]”, for which the “Percent 2006 Activity” value with human TLR9 (setting [2]) is 92%.

For the sequence “TACTGGCGGGGAAGT (DNA, backbone and methylation of C not given here) [ODN 074]”, in the data set with human TLR9 (setting [2]), the “Percent 2006 Activity” value was 132%.

Take “TAGTGGCGGGGAAGT (DNA, backbone and methylation of C not given here) [ODN 441]”: in the data set with human TLR9 (setting [2]), the “Percent 2006 Activity” value is given as 105%.

For “TATTGGCGGGGAAGT (DNA, backbone and methylation of C not given here) [ODN 442]”, the “Percent 2006 Activity” value in the data set with human TLR9 (setting [2]) amounted to 101%.

Regarding “TCATGGCGGGGAAGT (DNA, backbone and methylation of C not given here) [ODN 073]”, in the data set with human TLR9 (setting [2]), the “Percent 2006 Activity” value is 114%.

“TCCAGGCGGGGAAGT (DNA, backbone and methylation of C not given here) [ODN 157]”: the “Percent 2006 Activity” value with human TLR9 (setting [1]) is listed as 14%.

Turning to “TCCCGGCGGGGAAGT (DNA, backbone and methylation of C not given here) [ODN 155]”, the “inhibitory for TLR8” value with human TLR8 is recorded as “inhibitory”. Moreover, in the data set with human TLR9 (setting [1]), the “Percent 2006 Activity” value was 11%. Besides, the “inhibitory for TLR9” value with human TLR9 is “inhibitory”.

Regarding “TCCTGGCGGGGAA (DNA, backbone and methylation of C not given here) [ODN 969]”, in the data set with human TLR9, the “inhibition of hTLR9 (CpG ODN 2006-mediated luciferase activity), in words” value is given as “inhibited”.

Turning to “TCCTGLGGGGAAGT (Spacer 18 hexaethyleneglycol spacer, as printed in the source, key not given here) [ODN 493]”, the “Percent 2006 Activity” value with human TLR9 (setting [3]) came out at 54%.

For “TCCTGLLGGGGAAGT (two Spacer 18 hexaethyleneglycol spacers, as printed in the source, key not given here) [ODN 492]”, in the data set with human TLR9 (setting [3]), the “Percent 2006 Activity” value worked out at 67%.

With “TCCTGTGTGTGTGTCGGGGAAGT (listed as DNA, chemistry not given here) [ODN 494]”, the “Percent 2006 Activity” value in the data set with human TLR9 (setting [3]) is reported as 47%.

As for “TCCTGTGTGTGTGTGTCGGGGAAGT (listed as DNA, chemistry not given here) [ODN 495]”, the “Percent 2006 Activity” value with human TLR9 (setting [3]) worked out at 34%.

Consider “TCGTGGCGGGGAAGT (DNA, backbone and methylation of C not given here) [ODN 435]”, for which the “Percent 2006 Activity” value in the data set with human TLR9 (setting [2]) came to 77%.

As for “TCTTGGCGGGGAAGT (DNA, backbone and methylation of C not given here) [ODN 437]”, the “Percent 2006 Activity” value with human TLR9 (setting [2]) turned out to be 89%.

Regarding “TGGTGGCGGGGAAGT (DNA, backbone and methylation of C not given here) [ODN 436]”, the “Percent 2006 Activity” value with human TLR9 (setting [2]) was found to be 90%.

“TTATGGCGGGGAAGT (DNA, backbone and methylation of C not given here) [ODN 439]”: the “Percent 2006 Activity” value with human TLR9 (setting [2]) is recorded as 91%.

On to “TTCTGGCGGGGAAGT (DNA, backbone and methylation of C not given here) [ODN 440]”, for which the “Percent 2006 Activity” value with human TLR9 (setting [2]) was determined as 90%.

For the sequence “TTGTGGCGGGGAAGT (DNA, backbone and methylation of C not given here) [ODN 438]”, the “Percent 2006 Activity” value in the data set with human TLR9 (setting [2]) came to 95%.

In the case of “TTTTGGCGGGGAAGT (DNA, backbone and methylation of C not given here) [ODN 072]”, the “Percent 2006 Activity” value with human TLR9 (setting [2]) is on record as 121%.
